Test results from US6632794B1, “Insulin-like growth factor agonist molecules” (Genentech, Inc., priority 1997, dated 2003).

Legend:
[1] = test system: Zucker Diabetic Fatty rats; assay: IV bolus injection into diabetic rats, plasma glucose and insulin; format: in vivo, rat; conditions: ZDF rats, 100 μg IV; for fall in blood glucose: after 10 minutes
Method: Eighteen 7-week-old male Zucker Diabetic Fatty rats (250-300 g, Genetic Models Inc.) were anesthetized using KETAMINE™ (62.5 mg/kg)/ROMPUN XYLAZINE™ (12.5 mg/kg) anesthesia. The right jugular vein was cannulated using a silicone rubber catheter and the rats were allowed to recover.
Two days after surgery the rats (5-6/group) were divided into three treatment groups and given IV via the jugular catheter 200 μl of:
Three days later, using the same rats the study was repeated. The rats that were dosed with IGF-I in the initial study received the IGF mutant in the repeat study and vice versa. Control animals received PBS in both experiments.
Two blood samples were collected from each rat via the jugular cannula prior to IV dosing with the hormones and then blood samples were collected after 10, 30, 60, and 120 minutes. The plasma was immediately separated by centrifugation. The glucose concentration was measured by a coupled hexokinase procedure using a Chem 1A serum chemistry analyzer. Insulin concentration was measured using a rat insulin RIA kit (Linco Research, Inc., St. Charles, Mo.).
Statistical comparisons for each time point were made by an ANOVA with a Duncan's Multiple Range test. A p value of <0.05 was considered as being statistically significant. All data are represented as the mean±SEM, with five or six animals per treatment group.

[2] = test system: male Wistar rats; assay: IV injection into conscious normal rats, plasma glucose and insulin; format: in vivo, rat; conditions: 100 μg IV; for fall in blood glucose / plasma insulin response: after 10 mins
Method: Seven week old male Wistar rats (240-250 g, Charles Rivers Laboratories, Hollister, Calif.) were anesthetized with KETAMINE/XYLAZINE™ anesthesia and the right jugular vein was cannulated with a silicone rubber cannula that was developed for chronic blood sampling. Clark et al., J. Endocrinol., 111: 27-35 (1986). Following a two- to three-day recovery period, two basal blood samples were taken at −10 and −5 minutes, the test substances administered to the rats by IV injection, and then blood samples collected after 5, 10, 20, 30, 45, 60, and 120 minutes, and the plasma was immediately separated by centrifugation. The glucose and insulin concentrations were subsequently determined either by a coupled hexokinase procedure using a Chem 1A serum chemistry analyzer or, in the later case, a rat insulin RIA kit (Linco Research, Inc., St. Charles, Mo.).
Statistical comparisons were made by an analysis of variance (ANOVA) with a Duncan's Multiple Range test. A p value of <0.05 was considered as being statistically significant. All data are represented as the mean±SEM.
Two treatment groups, with five rats per group, were dosed IV with either (Leu^24,Ala^31)hIGF-I (100 μg) or PBS.
The rats in three treatment groups, with 4-5 rats per group, were dosed IV with either (Leu^24,Ala^31)hIGF-I (100 μg) or rhIGF-I (100 μg) and a control group was given PBS.

[3] = test system: dwarf rats; assay: Long-term administration to GH-deficient dwarf (dw/dw) rats; format: in vivo, rat; conditions: for retroperitoneal fat depot weight: at sacrifice; for AST / BUN / CK / Creatinine / Glucose / Insulin: serum at sacrifice, Means ± SEM
Excerpt: Young female dwarf rats (11-12 wk of age, 115-140 g) were bred by homozygous mating (Charles Rivers Laboratories) and delivered to the Genentech Animal House where they were housed five per cage on polystyrene chips and fed a standard animal chow and water ad libitum, and kept in a room of constant humidity and with controlled temperature and lighting. The animals were weighed, and based on uniformity of body weight, 37 of the animals were selected and randomized into treatment groups and cages to give six treatment groups of equal initial body weights (approximately 120 g).
The study consisted of six groups of rats with six or seven rats per group.
The mutant (Leu^24,Ala^31)hIGF-I and native sequence recombinant human IGF-I were administered by osmotic minipumps (ALZET 2001™, Alza, Palo Alto, Calif.) which were placed in a subcutaneous tunnel in the dorsal neck region while the rats were anesthetized with KETAMINE/XYLAZINE™ anesthesia. The pumps were filled with solutions so that the calculated daily dose was 120 μg per rat per day (1 mg/kg/day), assuming that the pump delivered as per the manufacturer's description (24 μl of solution per day).
Recombinant human GH (50 μg/day) was administered for eight days by twice daily sc injection, with each injection being of 25 μg in a volume of 100 μl.
Body weights were measured daily in the morning. After 8 days the animals were anesthetized using CO2 and exsanguinated by cardiac puncture. The remaining blood was allowed to clot and serum was separated and stored for further analysis.
Spleen, thymus, heart, liver, kidney, and perirenal fat were removed and weighed. The tibia was removed and fixed in neutral buffered formalin for histological measurement of epiphyseal plate width.
Serum chemistries were measured using a TECHNICON CHEM I PLUS™ analyzer. Serum insulin concentration was measured using an RIA kit supplied by Linco, Inc. To measure the IGF-I concentrations the serum was extracted using acid ethanol and the supernatant diluted to neutrality and assayed for IGF-I by RIA. The concentration of rat IGF-I in serum extract was measured by RIA using a kit from Diagnostic Systems Laboratories, Inc. Human IGF-I concentration was measured by RIA at Genentech, Inc.
Tibia were sectioned longitudinally, stained with TOLULENE BLUE™ stain and mounted on microscope slides. The tibial epiphyseal plate width was measured using an ocular micrometer attached to a microscope.
Data were analyzed statistically by analysis of variance using one-factor ANOVA followed by Duncan's Range Test.

[4] = test system: mouse 3T3 cells; assay: ^3H-thymidine incorporation into mouse 3T3 cells; format: cell-based
Method: Assay 2: Increase in Cell Number of Mouse 3T3 Cells
The activity of the IGF mutant was also measured in a bioassay for the activity of IGF-I on DNA synthesis and cell replication. In this assay mouse 3T3 cells are cultured, and the IGF mutant or IGF-I is added, followed by tritiated ^3H-thymidine. The amount of ^3H-thymidine incorporated is a measure of the replication of DNA and thus of cell replication.

[5] = Day one, 120 μg/day each by pump

| Substance | plasma insulin response ([1]; Study One) | fall in blood glucose ([1]; Study One) | time plasma insulin remained depressed ([2]; Study Two) | fall in blood glucose ([2]; Study Two) | plasma insulin response ([2]; Study Two) | epiphyseal plate widths ([3]; 8 days) | body weight gain [3, 5] | retroperitoneal fat depot weight ([3]; 120 μg/day each by pump) | AST ([3]; 8 days) | BUN ([3]; 8 days) | CK ([3]; 8 days) | Creatinine ([3]; 8 days) | Glucose ([3]; 8 days) | Insulin ([3]; 8 days) | ^3H-thymidine incorporation [4] | other results |
| --- | --- | --- | --- | --- | --- | --- | --- | --- | --- | --- | --- | --- | --- | --- | --- | --- |
| (Leu^24,Ala^31)hIGF-I | suppressed blood insulin concentrations | smaller, but statistically significant | ≥ 120 min | small but statistically significant fall in blood glucose | fall in insulin concentrations of a similar magnitude and degree of statistical significance | increased the mean plate widths compared to the individual treatments, but these increases did not reach statistical significance | 0.5 ± 0.6 g | 0.53 ± 0.10 g | 143 ± 8 U/l | 17.8 ± 0.4 mg/dL | 301 ± 44 u/l | 0.23 ± 0.03 mg/dL | 174 ± 18 mg/dL | 0.88 ± 0.09 ng/mL | no activity | plasma insulin levels, % of that of the control group ([2]; Study One): 25%; time plasma insulin remained depressed ([2]; Study One): 60 min; fall in blood glucose ([2]; Study One): brief but statistically significant; blood levels of endogenous rat IGF-I ([3]; 8 days): lower; absolute spleen weight ([3]; 8 days, 120 μg/day by pump): 350 ± 14 mg; body weight gain ([3]; day 6, 120 μg/day by pump): 4.2 ± 0.6 g |
| IGF-I: native-sequence recombinant human insulin-like growth factor-I (Genentech) | large, and maintained fall in plasma insulin | immediate, moderate, and statistically significant | 120 min | brief but statistically significant fall in blood glucose | decreased significantly | significantly (p<0.05) increased | 1.2 ± 0.4 g | 0.48 ± 0.06 g | 128 ± 11 U/l | 16.0 ± 0.7 mg/dL | 225 ± 18 u/l | 0.22 ± 0.05 mg/dL | 190 ± 24 mg/dL | 0.54 ± 0.06 ng/mL | increased thymidine incorporation in a dose-related manner | plasma insulin response ([1]; Study Two): large, and maintained fall in plasma insulin; fall in blood glucose ([1]; Study Two): immediate, moderate, and statistically significant |
